The values that follow come from US20240409585A1, “MACROCYCLIC IMMUNOMODULATORS” (priority 2021, published 2024).

Bridge positions count the residues as written; N and C are the ends. Square brackets hold non-standard residues; d marks the D form. Peptide text beside a SMILES is read from it. * marks the point of attachment. ξ: configuration not given here. Phe(4-COOH) = N[C@@H](Cc1ccc(C(=O)O)cc1)C(=O)O; Bip = N[C@@H](Cc1ccc(-c2ccccc2)cc1)C(=O)O; Phe(3-OMe) = COc1cccc(C[C@H](N)C(=O)O)c1; Phe(3-Me) = Cc1cccc(C[C@H](N)C(=O)O)c1; Bta = N[C@@H](Cc1csc2ccccc12)C(=O)O; Val(3-OH) = CC(C)(O)[C@H](N)C(=O)O; 4Pal = N[C@@H](Cc1ccncc1)C(=O)O; Cha = N[C@@H](CC1CCCCC1)C(=O)O; Ile(3ξ) = CCC(C)[C@H](N)C(=O)O; Thr(3ξ) = CC(O)[C@H](N)C(=O)O; dDab = NCC[C@@H](N)C(=O)O; Carboxymethyl = O=C(O)C*; NMeA = CN[C@@H](C)C(=O)O; Orn = NCCC[C@H](N)C(=O)O; Dab = NCC[C@H](N)C(=O)O; Dap = NC[C@H](N)C(=O)O; ξC = NC(CS)C(=O)O; Acm = CC(=O)NC*

The target in the assay is T1, PE-labeled human PD-L1-Ig binding to Jurkat cell line over-expressing human PD-1 (Jurkat-PD-1) (Homo sapiens, UniProt Q15116).
T1 construct: expressed in transfected cells; host or cells: Jurkat
T1 sequence (Q15116 25-288): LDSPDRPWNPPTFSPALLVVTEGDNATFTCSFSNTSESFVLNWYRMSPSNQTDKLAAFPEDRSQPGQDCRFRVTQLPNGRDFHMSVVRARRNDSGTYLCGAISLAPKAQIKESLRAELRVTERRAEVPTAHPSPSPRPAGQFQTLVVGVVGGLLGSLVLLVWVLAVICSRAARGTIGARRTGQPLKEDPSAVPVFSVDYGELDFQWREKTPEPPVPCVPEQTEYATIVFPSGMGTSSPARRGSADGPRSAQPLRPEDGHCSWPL
The experiment in a line: Jurkat-PD-1 Cell Binding High-Content Screening Assay (CBA): Method 1. The settings on record: Jurkat-hPD-1 cells, PE-labeled PD-L1-Ig 20 nM final; read-out: Jurkat HPDL1 PD1 IC50 (uM) (Method 1).
Regarding `CC(C)C[C@@H]1NC(=O)[C@H](CCCNC(=N)N)NC(=O)[C@H](Cc2csc3ccccc23)NC(=O)[C@H](C)N(C)C(=O)[C@H](CCCNC(=N)N)NC(=O)[C@H](Cc2ccc(-c3ccccc3)cc2)NC(=O)[C@H](C(C)C)NC(=O)[C@H](Cc2c[nH]c3ccccc23)NC(=O)[C@H](CC(=O)O)NC(=O)[C@H](Cc2ccc(O)cc2)NC(=O)[C@H](CC(N)=O)NC(=O)CSC[C@@H](C(=O)NCC(N)=O)NC(=O)[C@H](CO)NC(=O)[C@H](C(C)C)NC1=O` [Compound 1026] ({CH2CO}-NYDWV[Bip]R[NMeA][Bta]RLVSCG-NH2; thioether N-14), the IC50 was 0.13 µM.

`CC(C)C[C@@H]1NC(=O)[C@H](Cc2c[nH]c3ccccc23)NC(=O)[C@H](CC(=O)O)NC(=O)[C@H](Cc2ccc(O)cc2)NC(=O)[C@H](Cc2ccccc2)NC(=O)CSC[C@@H](C(=O)NCC(N)=O)NC(=O)[C@H](CO)NC(=O)[C@H](C(C)C)NC(=O)[C@H](CC(C)C)NC(=O)[C@H](CC(N)=O)NC(=O)[C@@H](C)NC(=O)[C@H](C)N(C)C(=O)[C@H](C(C)C)NC(=O)[C@H](Cc2ccc(-c3ccccc3)cc2)NC1=O` [Compound 1729] ({CH2CO}-FYDWL[Bip]V[NMeA][dA]NLVSCG-NH2; thioether N-14): the half-maximal inhibitory concentration (IC50) turned out to be 0.01 µM.

With `COc1cccc(C[C@@H]2NC(=O)[C@H](CN)NC(=O)CSC[C@@H](C(=O)N[C@@H](C)C(N)=O)NC(=O)[C@H]([C@@H](C)O)NC(=O)[C@H](C(C)C)NC(=O)[C@H](CC(C)C)NC(=O)[C@H](CCN)NC(=O)[C@@H](CC(C)C)NC(=O)[C@H](C)N(C)C(=O)[C@H](C(C)C)NC(=O)[C@H](Cc3ccc(-c4ccccc4)cc3)NC(=O)[C@H](C(C)C)NC(=O)[C@H](Cc3c[nH]c4ccccc34)NC(=O)[C@H](CC(=O)O)NC2=O)c1` [Compound 1427] ({CH2CO}-[Dap][Phe(3-OMe)]DWV[Bip]V[NMeA][dL][Dab]LVTCA-NH2; thioether N-14), the concentration for half-maximal inhibition (IC50) amounted to 0.11 µM.

Take `CC(C)C[C@@H]1NC(=O)[C@H](CCN)NC(=O)[C@@H](CC(C)C)NC(=O)[C@H](C)N(C)C(=O)[C@H](Cc2cnc[nH]2)NC(=O)[C@H](Cc2ccc(-c3ccccc3)cc2)NC(=O)[C@H](C(C)C)NC(=O)[C@H](Cc2c[nH]c3ccccc23)NC(=O)[C@H](CC(=O)O)NC(=O)[C@H](Cc2ccc(C(=O)O)cc2)NC(=O)[C@H](CN)NC(=O)CSC[C@@H](C(=O)N[C@@H](C)C(N)=O)NC(=O)[C@H]([C@@H](C)O)NC(=O)[C@H](C(C)C)NC1=O` [Compound 1439] ({CH2CO}-[Dap][Phe(4-COOH)]DWV[Bip]H[NMeA][dL][Dab]LVTCA-NH2; thioether N-14): the half-maximal inhibitory concentration (IC50) was found to be 0.06 µM.

As to `Cc1cccc(C[C@@H]2NC(=O)[C@H](CC(=O)O)NC(=O)[C@H](Cc3ccc(OCC(=O)O)cc3)NC(=O)[C@H](Cc3ccc(OCC(=O)O)cc3)NC(=O)CSC[C@@H](C(=O)N[C@@H](CCN)C(N)=O)NC(=O)[C@@H](CCN)NC(=O)[C@H](C(C)C)NC(=O)[C@H](CC3CCCCC3)NC(=O)[C@H](CCN)NC(=O)[C@@H](CC(C)C)NC(=O)[C@H](C)N(C)C(=O)[C@H](Cc3ccc(O)cc3)NC(=O)[C@H](Cc3ccc(-c4ccccc4)cc3)NC(=O)[C@H](Cc3ccc(O)cc3)NC2=O)c1` [Compound 1872] ({CH2CO}-Y(Carboxymethyl)Y(Carboxymethyl)D[Phe(3-Me)]Y[Bip]Y[NMeA][dL][Dab][Cha]V[dDab]C[Dab]-NH2; thioether N-14), the IC50 turned out to be 0.02 µM.

With `CCC(C)[C@@H]1NC(=O)[C@H](Cc2ccc(-c3ccccc3)cc2)NC(=O)[C@H](C(C)C)NC(=O)[C@H](Cc2c[nH]c3ccccc23)NC(=O)[C@H](CC(=O)O)NC(=O)[C@H](Cc2ccc(O)cc2)NC(=O)[C@H](CC(N)=O)NC(=O)CSCC(C(=O)NCC(=O)N[C@@H](CCN)C(=O)O)NC(=O)[C@H](C(C)O)NC(=O)[C@H](C(C)C)NC(=O)[C@H](CC2CCCCC2)NC(=O)[C@H](CC(N)=O)NC(=O)[C@@H](CC(C)C)NC(=O)[C@H](C)N(C)C1=O` (stereo partly drawn) [Compound 2003] ({CH2CO}-NYDWV[Bip][Ile(3ξ)][NMeA][dL]N[Cha]V[Thr(3ξ)][ξC]G[Dab]-OH; thioether N-14), the IC50 is 0.02 µM.

Regarding `CC(=O)NCSC[C@@H]1NC(=O)[C@H](Cc2cccc(C)c2)NC(=O)[C@H](CC(=O)O)NC(=O)[C@H](Cc2ccncc2)NC(=O)[C@H](Cc2ccc(OCC(=O)O)cc2)NC(=O)CSCC(C(=O)NCC(N)=O)NC(=O)[C@H](CSCNC(C)=O)NC(=O)[C@H](C(C)C)NC(=O)[C@H](CC(C)C)NC(=O)[C@H](CC(N)=O)NC(=O)[C@@H](CC(C)C)NC(=O)[C@H](C)N(C)C(=O)[C@H](C(C)C)NC(=O)[C@H](Cc2ccc(-c3ccccc3)cc2)NC1=O` (stereo partly drawn) [Compound 1885] ({CH2CO}-Y(Carboxymethyl)[4Pal]D[Phe(3-Me)]C(Acm)[Bip]V[NMeA][dL]NLVC(Acm)[ξC]G-NH2; thioether N-14), the half-inhibitory concentration (IC50) came out at 0.11 µM.

Turning to `CC(C)C[C@@H]1NC(=O)[C@H](Cc2c[nH]c3ccccc23)NC(=O)[C@H](CC(=O)O)NC(=O)[C@H](Cc2ccc(O)cc2)NC(=O)[C@H](Cc2ccccc2)NC(=O)CSC[C@@H](C(=O)N[C@@H](C)C(N)=O)NC(=O)[C@H](CO)NC(=O)[C@H](C(C)C)NC(=O)[C@H](CC(C)C)NC(=O)[C@H](CCCNC(=N)N)NC(=O)[C@@H](CC(C)C)NC(=O)[C@H](C)N(C)C(=O)[C@H](CCCNC(=N)N)NC(=O)[C@H](Cc2ccc(-c3ccccc3)cc2)NC1=O` [Compound 1780] ({CH2CO}-FYDWL[Bip]R[NMeA][dL]RLVSCA-NH2; thioether N-14), the concentration for half-maximal inhibition (IC50) came out at 0.08 µM.

Take `CC(C)C[C@@H]1NC(=O)[C@H](Cc2c[nH]c3ccccc23)NC(=O)[C@H](CC(=O)O)NC(=O)[C@H](Cc2ccc(O)cc2)NC(=O)[C@H](Cc2ccccc2)NC(=O)CSC[C@@H](C(=O)NCC(N)=O)NC(=O)[C@H](CO)NC(=O)[C@H](C(C)C)NC(=O)[C@H](CC(C)C)NC(=O)[C@H](CC(N)=O)NC(=O)[C@@H](CCC(N)=O)NC(=O)[C@H](C)N(C)C(=O)[C@H](C(C)C)NC(=O)[C@H](Cc2ccc(-c3ccccc3)cc2)NC1=O` [Compound 1784] ({CH2CO}-FYDWL[Bip]V[NMeA][dQ]NLVSCG-NH2; thioether N-14): the half-inhibitory concentration (IC50) stood at 0.09 µM.

In the case of `CC(C)C[C@@H]1NC(=O)[C@H](CCCNC(=N)N)NC(=O)[C@@H](CC(C)C)NC(=O)[C@H](C)N(C)C(=O)[C@H](CCCNC(=N)N)NC(=O)[C@H](Cc2ccc(-c3ccccc3)cc2)NC(=O)[C@H](C(C)C)NC(=O)[C@H](Cc2c[nH]c3ccccc23)NC(=O)[C@H](CC(=O)O)NC(=O)[C@H](Cc2ccc(O)cc2)NC(=O)[C@H](CC(N)=O)NC(=O)CSC[C@@H](C(=O)N[C@@H](C)C(N)=O)NC(=O)[C@H](CCCN)NC(=O)[C@H](C(C)C)NC1=O` [Compound 1252] ({CH2CO}-NYDWV[Bip]R[NMeA][dL]RLV[Orn]CA-NH2; thioether N-14), the IC50 was 0.09 µM.

For `Cc1cccc(C[C@@H]2NC(=O)[C@H](CC(=O)O)NC(=O)[C@H](Cc3ccc(OCC(=O)O)cc3)NC(=O)[C@H](C(C)O)NC(=O)CSC[C@@H](C(N)=O)NC(=O)[C@H](CO)NC(=O)[C@H](C(C)(C)O)NC(=O)[C@H](CC3CCCCC3)NC(=O)[C@H](CCN)NC(=O)[C@@H](CC(C)C)NC(=O)[C@H](C)N(C)C(=O)[C@H](Cc3ccc(OCC(=O)O)cc3)NC(=O)[C@H](Cc3ccc(-c4ccccc4)cc3)NC(=O)[C@H](Cc3ccc(C(=O)O)cc3)NC2=O)c1` (stereo partly drawn) [Compound 2264] ({CH2CO}-[Thr(3ξ)]Y(Carboxymethyl)D[Phe(3-Me)][Phe(4-COOH)][Bip]Y(Carboxymethyl)[NMeA][dL][Dab][Cha][Val(3-OH)]SC-NH2; thioether N-14), the half-inhibitory concentration (IC50) amounted to 0.09 µM.

By IC50 is commonly meant the concentration that inhibits the measured activity by half.
